Measurements published in US9611256B2, “Alkyne-, azide- and triazole-containing flavonoids as modulators for multidrug resistance in cancers” (The Hong Kong Polytechnic University, priority 2012, dated 2017).
Values joined by “and” are separate entries in the source; they are usually repeats but may differ in a detail not shown here. Identical values can stand only once. Like-named read-outs stand apart in the source and are kept apart here.

Key:
[1] = Cytotoxicity assay (MTS) towards L929 normal fibroblasts; conditions: mouse, L929 fibroblasts
[2] = system: P-gp, MRP1 and BCRP transporters; assay: Selectivity for ABC transporters, determined from % of reversion (Tables 1 and 2); type: cell-based, human; conditions: determined from % of reversion in Table 1 (>80% strongly, 79-50% moderately selective)
Outline: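 Compounds are grouped as acting on one, two or all three of P-gp, MRP1 and BCRP. The basis is percent reversion: 79-50% means moderate selectivity, above 80% strong selectivity.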

P-gp [3] = target: T1, P-gp (Homo sapiens, UniProt P08183); conditions: mouse (L929 or Raw264.7) and human (LCC6MDR), 5 days
in vitro = conditions: mouse
P-gp [4] = target: T1, P-gp; assay: cell-based
MRP1 [5] = target: T2, MRP1 (Homo sapiens, UniProt P33527); assay: Reversal of MRP1-mediated DOX resistance in 2008/MRP1 cells (cell proliferation assay); conditions: for DOX resistance of 2008/MRP1 Therapeutic index: (IC50 towards L929 or Raw264.7)/(EC50 for reversing drug resistance)
MRP1 [6] = target: T2, MRP1; assay: Reversal of MRP1-mediated vincristine resistance in 2008/MRP1 cells (cell proliferation assay); conditions: (IC50 towards L929 or Raw264.7)/(EC50 for reversing drug resistance)
HEK293/R2 = assay: Cell proliferation assay without modulator, HEK293/R2; type: cell-based; conditions: Homo sapiens, read-out: IC50 of anticancer drug, HEK293/R2
[7] = system: HEK293/pcDNA3.1 cell line; assay: Cell proliferation assay without modulator, HEK293/pcDNA3.1; type: cell-based; conditions: Homo sapiens, read-out: IC50 of anticancer drug, wild type HEK293/pcDNA3.1
MCF7-MX100 = assay: Cell proliferation assay without modulator, MCF7-MX100; type: cell-based, human
MCF7 = assay: Cell proliferation assay without modulator, MCF7; type: cell-based; conditions: Homo sapiens, read-out: IC50 of anticancer drug, wild type MCF7
L929 cells = assay: Cytotoxicity assay (MTS) towards L929 normal fibroblasts; conditions: read-out: Cytotoxicity (IC50, μM) L929; L929 mouse fibroblasts
BCRP [8] = target: T3, BCRP (Homo sapiens, UniProt Q9UNQ0); assay: Reversal of BCRP-mediated topotecan resistance in MCF7-MX100 cells (cell proliferation assay); conditions: (IC50 towards L929 or Raw264.7)/(EC50 for reversing drug resistance)
T3 sequence (Q9UNQ0 1-655): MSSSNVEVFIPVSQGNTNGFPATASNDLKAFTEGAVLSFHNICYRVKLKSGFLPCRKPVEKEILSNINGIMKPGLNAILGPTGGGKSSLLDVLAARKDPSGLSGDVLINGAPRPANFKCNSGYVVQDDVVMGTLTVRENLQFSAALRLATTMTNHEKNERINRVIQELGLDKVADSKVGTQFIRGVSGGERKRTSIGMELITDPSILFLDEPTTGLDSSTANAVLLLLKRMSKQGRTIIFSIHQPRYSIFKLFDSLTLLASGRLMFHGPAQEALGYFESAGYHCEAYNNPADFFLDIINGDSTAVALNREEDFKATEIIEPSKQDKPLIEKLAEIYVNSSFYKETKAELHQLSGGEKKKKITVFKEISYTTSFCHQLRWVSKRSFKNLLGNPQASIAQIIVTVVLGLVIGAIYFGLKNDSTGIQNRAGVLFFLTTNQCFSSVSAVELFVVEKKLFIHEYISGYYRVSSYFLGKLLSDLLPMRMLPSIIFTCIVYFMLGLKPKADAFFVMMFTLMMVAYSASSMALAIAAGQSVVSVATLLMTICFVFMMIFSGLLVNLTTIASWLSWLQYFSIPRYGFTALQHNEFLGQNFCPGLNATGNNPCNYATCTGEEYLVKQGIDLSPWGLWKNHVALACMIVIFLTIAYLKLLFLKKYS

BCRP [9] = target: T3, BCRP; assay: Reversal of BCRP-mediated topotecan resistance in HEK293/R2 cells (cell proliferation assay); conditions: triazole dimers, anti vs syn; cell line not given (Table 1)
LCC6MDR = assay: Cell proliferation assay without modulator, LCC6MDR; type: cell-based, human
LCC6 cells = assay: Cell proliferation assay without modulator, LCC6; type: cell-based; conditions: Homo sapiens, LCC-6, read-out: IC50 of anticancer drug, parental LCC6 cells
2008/P cells = assay: Cell proliferation assay, 2008/P; type: cell-based; conditions: Homo sapiens; without modulator; read-out: IC50 of anticancer drug, parental 2008/P cells
2008/MRP1 = assay: Cell proliferation assay, 2008/MRP1

T1 sequence (P08183 whole entry): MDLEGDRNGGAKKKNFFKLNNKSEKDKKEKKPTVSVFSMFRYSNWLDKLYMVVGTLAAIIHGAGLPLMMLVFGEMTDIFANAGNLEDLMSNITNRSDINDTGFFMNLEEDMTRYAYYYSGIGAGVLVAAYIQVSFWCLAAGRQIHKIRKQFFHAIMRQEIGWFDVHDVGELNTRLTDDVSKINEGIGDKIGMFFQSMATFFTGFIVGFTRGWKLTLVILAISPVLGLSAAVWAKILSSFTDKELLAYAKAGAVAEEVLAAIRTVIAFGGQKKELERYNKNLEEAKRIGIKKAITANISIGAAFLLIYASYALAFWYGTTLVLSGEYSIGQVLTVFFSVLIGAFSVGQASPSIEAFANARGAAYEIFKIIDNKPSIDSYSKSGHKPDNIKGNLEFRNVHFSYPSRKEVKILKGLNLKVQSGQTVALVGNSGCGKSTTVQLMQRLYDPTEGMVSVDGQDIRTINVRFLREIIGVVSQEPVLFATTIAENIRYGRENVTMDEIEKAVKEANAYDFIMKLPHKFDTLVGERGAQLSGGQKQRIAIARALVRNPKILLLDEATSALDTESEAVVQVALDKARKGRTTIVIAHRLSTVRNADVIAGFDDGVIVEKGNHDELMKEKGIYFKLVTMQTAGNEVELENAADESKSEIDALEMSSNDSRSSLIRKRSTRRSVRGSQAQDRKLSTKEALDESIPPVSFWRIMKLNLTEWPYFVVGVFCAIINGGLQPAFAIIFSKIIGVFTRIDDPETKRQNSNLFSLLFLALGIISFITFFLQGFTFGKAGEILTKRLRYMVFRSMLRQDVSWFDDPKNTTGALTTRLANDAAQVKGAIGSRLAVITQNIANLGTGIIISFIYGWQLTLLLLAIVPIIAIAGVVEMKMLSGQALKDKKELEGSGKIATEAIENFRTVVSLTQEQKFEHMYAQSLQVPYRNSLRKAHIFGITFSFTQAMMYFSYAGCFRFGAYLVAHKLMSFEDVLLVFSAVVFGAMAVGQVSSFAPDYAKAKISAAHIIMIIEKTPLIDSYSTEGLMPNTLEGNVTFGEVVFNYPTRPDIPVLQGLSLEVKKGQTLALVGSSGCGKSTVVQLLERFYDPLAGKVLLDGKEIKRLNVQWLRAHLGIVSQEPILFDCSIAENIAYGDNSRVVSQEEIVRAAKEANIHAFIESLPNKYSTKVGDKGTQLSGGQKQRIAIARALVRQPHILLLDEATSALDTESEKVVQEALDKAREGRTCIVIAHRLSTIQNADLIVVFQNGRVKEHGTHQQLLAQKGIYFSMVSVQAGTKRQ
T2 sequence (P33527 whole entry): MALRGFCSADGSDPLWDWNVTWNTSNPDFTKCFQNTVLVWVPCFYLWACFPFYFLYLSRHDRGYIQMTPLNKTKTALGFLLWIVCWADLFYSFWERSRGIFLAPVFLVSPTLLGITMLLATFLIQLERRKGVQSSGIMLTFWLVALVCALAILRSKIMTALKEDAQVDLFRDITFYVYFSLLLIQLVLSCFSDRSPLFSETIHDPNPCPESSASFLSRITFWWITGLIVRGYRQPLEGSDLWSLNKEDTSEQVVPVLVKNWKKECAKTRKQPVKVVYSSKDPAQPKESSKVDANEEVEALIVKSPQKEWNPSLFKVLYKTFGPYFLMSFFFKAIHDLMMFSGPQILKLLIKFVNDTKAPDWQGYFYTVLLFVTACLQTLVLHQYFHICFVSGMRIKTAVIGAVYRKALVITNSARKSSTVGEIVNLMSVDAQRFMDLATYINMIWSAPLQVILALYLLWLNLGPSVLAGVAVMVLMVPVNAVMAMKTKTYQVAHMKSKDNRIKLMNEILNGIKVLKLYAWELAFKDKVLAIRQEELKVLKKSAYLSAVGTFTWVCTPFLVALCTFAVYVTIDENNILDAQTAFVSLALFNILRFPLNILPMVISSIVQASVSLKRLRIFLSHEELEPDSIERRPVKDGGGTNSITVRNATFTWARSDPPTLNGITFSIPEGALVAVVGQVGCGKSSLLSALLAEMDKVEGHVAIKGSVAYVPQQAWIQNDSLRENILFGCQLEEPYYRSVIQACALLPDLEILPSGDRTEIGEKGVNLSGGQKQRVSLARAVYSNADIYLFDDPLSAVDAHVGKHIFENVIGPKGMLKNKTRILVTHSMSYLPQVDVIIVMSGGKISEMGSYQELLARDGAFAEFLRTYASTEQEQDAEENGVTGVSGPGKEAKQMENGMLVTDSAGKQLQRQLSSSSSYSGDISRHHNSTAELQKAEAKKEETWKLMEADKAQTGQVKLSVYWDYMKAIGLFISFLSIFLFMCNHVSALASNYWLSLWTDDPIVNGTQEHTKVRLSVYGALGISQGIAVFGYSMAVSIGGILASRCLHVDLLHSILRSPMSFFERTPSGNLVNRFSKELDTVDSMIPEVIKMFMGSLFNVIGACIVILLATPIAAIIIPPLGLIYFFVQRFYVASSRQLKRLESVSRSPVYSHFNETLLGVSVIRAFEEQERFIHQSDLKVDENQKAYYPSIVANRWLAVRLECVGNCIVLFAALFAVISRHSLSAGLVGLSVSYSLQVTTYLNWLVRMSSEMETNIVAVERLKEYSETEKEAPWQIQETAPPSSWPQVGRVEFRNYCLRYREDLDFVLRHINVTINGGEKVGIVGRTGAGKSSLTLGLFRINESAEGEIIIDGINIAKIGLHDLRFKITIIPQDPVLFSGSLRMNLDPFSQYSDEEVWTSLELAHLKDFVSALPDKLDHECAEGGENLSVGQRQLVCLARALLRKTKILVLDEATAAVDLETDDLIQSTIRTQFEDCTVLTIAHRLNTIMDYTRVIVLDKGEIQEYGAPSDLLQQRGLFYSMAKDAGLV

SMILES: C/C=C/C[C@@H](C)C(=O)[C@H]1C(=O)N[C@@H](C(C)C)C(=O)N(C)CC(=O)N(C)[C@@H](CC(C)C)C(=O)N[C@@H](C(C)C)C(=O)N(C)[C@@H](CC(C)C)C(=O)N[C@@H](C)C(=O)N[C@H](C)C(=O)N(C)[C@@H](CC(C)C)C(=O)N(C)[C@@H](CC(C)C)C(=O)N(C)[C@@H](C(C)C)C(=O)N1C [PSC833]
- IC50 at 5 days [1]: > 100 µM

SMILES: Cc1ccc2oc(-c3ccc(OCCOCCOCCn4cc(CCCCOc5ccc6c(=O)cc(-c7ccccc7)oc6c5)nn4)cc3)cc(=O)c2c1 [Ac12Az3, 6-Methyl-2-(4-(2-(2-(2-(4-(4-((4-oxo-2-phenyl-4H-chromen-7-yl)oxy)butyl)-1H-1,2,3-triazol-1-yl)ethoxy)ethoxy)ethoxy)phenyl)-4H-chromen-4-one]
- Selectivity for ABC transporters (P-gp, MRP1, BCRP) [2]: multi-selectivity towards P-gp, MRP1 and BCRP transporters
- Paclitaxel resistance of LCC6MDR Therapeutic index (P-gp [3]): >263.2
- IC50 at 5 days (in vitro): > 50 µM
- EC50 (P-gp [4]): 0.19 µM
- DOX resistance of 2008/MRP1 Therapeutic index (MRP1 [5]): >333.8
- Vincristine resistance of 2008/MRP1 Therapeutic index (MRP1 [6]): >613.5

SMILES: CC[C@@]1(O)C(=O)OCc2c1cc1n(c2=O)Cc2cc3c(CN(C)C)c(O)ccc3nc2-1 [topotecan]
- IC50 (HEK293/R2): 0.508 ± 0.0311 µM
- IC50 [7]: 0.0158 ± 0.0015 µM
- fold more resistance of MCF7-MX100 than wild type MCF7 (MCF7-MX100): about 104.4 fold
- IC50 (MCF7-MX100; Homo sapiens, MCF7/MX100, read-out: IC50 of anticancer drug, MCF7-MX100): 33.4 ± 2.1 µM
- IC50 (MCF7): 0.32 ± 0.07 µM

SMILES: COc1ccc2c3c([nH]c2c1)[C@H](CC(C)C)N1C(=O)[C@H](CCC(=O)OC(C)(C)C)NC(=O)[C@@H]1C3 [Ko143]
- IC50 (L929 cells): 29 µM and 29.2 µM

SMILES: Cc1ccc2oc(-c3ccc(OCCCCc4cn(CCOCCOCCOc5ccc6c(=O)cc(-c7ccccc7)oc6c5)nn4)cc3)cc(=O)c2c1 [Ac5Az12, 6-Methyl-2-(4-(4-(1-(2-(2-(2-((4-oxo-2-phenyl-4H-chromen-7-yl)oxy)ethoxy)ethoxy)ethyl)-1H-1,2,3-triazol-4-yl)butoxy)phenyl)-4H-chromen-4-one]
- Selectivity for ABC transporters (P-gp, MRP1, BCRP) [2]: mono-BCRP selectivity
- Paclitaxel resistance of LCC6MDR Therapeutic index (P-gp [3]): >709.2
- IC50 at 5 days (in vitro): > 100 µM
- EC50 (P-gp [4]): 0.141 ± 0.001 µM
- DOX resistance of 2008/MRP1 Therapeutic index (MRP1 [5]): >759.3
- Topotecan resistance of MCF7-MX100 Therapeutic index (BCRP [8]): >1600.0
- Vincristine resistance of 2008/MRP1 Therapeutic index (MRP1 [6]): >1081.1

SMILES: Cc1ccc2oc(-c3ccc(OCCCCc4cnnn4CCOCCOCCOc4ccc(-c5cc(=O)c6ccccc6o5)cc4)cc3)cc(=O)c2c1 [syn-Ac5Az2, 6-Methyl-2-(4-(4-(1-(2-(2-(2-(4-(4-oxo-4H-chromen-2-yl)phenoxy)ethoxy)ethoxy)ethyl)-1H-1,2,3-triazol-5-yl)butoxy)phenyl)-4H-chromen-4-one]
- MRP1 inhibitory activity of syn-isomer compared with anti-isomer (MRP1 [5]; syn vs anti triazole regioisomer): poorer MRP1 inhibitory activity than the anti-isomer Ac5Az2
- Relative fold (RF), BCRP-modulating activity (BCRP [9]): 9.3

SMILES: CC(=O)O[C@H]1C(=O)[C@@]2(C)[C@H]([C@H](OC(=O)c3ccccc3)[C@]3(O)C[C@H](OC(=O)[C@H](O)[C@@H](NC(=O)c4ccccc4)c4ccccc4)C(C)=C1C3(C)C)[C@]1(OC(C)=O)CO[C@@H]1C[C@@H]2O [paclitaxel]
- fold greater resistance of LCC6MDR than parental LCC6 cells (LCC6MDR): about 99.2 fold
- IC50 (LCC6MDR; Homo sapiens, LCC6MDR, read-out: IC50 of anticancer drug, LCC6MDR): 0.159 ± 0.0061 µM
- IC50 (LCC6 cells): 0.0016 ± 0.0003 µM

SMILES: Cc1ccc2oc(-c3ccc(OCCCCc4cn(CCOCCOCCOc5ccc(-c6cc(=O)c7ccccc7o6)cc5)nn4)cc3)cc(=O)c2c1 [Ac5Az2, 6-Methyl-2-(4-(4-(1-(2-(2-(2-(4-(4-oxo-4H-chromen-2-yl)phenoxy)ethoxy)ethoxy)ethyl)-1H-1,2,3-triazol-4-yl)butoxy)phenyl)-4H-chromen-4-one]
- Selectivity for ABC transporters (P-gp, MRP1, BCRP) [2]: mono-MRP1 selectivity
- Relative fold (RF), BCRP-modulating activity (BCRP [9]): 13.5

SMILES: COc1cccc2c1C(=O)c1c(O)c3c(c(O)c1C2=O)C[C@@](O)(C(=O)CO)C[C@@H]3O[C@H]1C[C@H](N)[C@H](O)[C@H](C)O1 [DOX]
- IC50 (2008/P cells): 0.0501 ± 0.0039 µM
- IC50 (2008/MRP1; Homo sapiens, 2008/MRP1, read-out: IC50 of anticancer drug, 2008/MRP1, without modulator): 0.42 ± 0.0174 µM
- IC50 (2008/MRP1; read-out: IC50 of anticancer drug, 2008/MRP1, without modulator): 0.413 µM
- fold more resistance of 2008/MRP1 than parental 2008/P (2008/MRP1; without modulator): about 8.4 fold

SMILES: Cc1ccc2oc(-c3ccc(OCCCCc4cnnn4CCOCCOc4ccc(-c5cc(=O)c6ccccc6o5)cc4)cc3)cc(=O)c2c1 [syn-Ac5Az1, 6-Methyl-2-(4-(4-(1-(2-(2-(4-(4-oxo-4H-chromen-2-yl)phenoxy)ethoxy)ethyl)-1H-1,2,3-triazol-5-yl)butoxy)phenyl)-4H-chromen-4-one]
- Relative fold (RF), BCRP-modulating activity (BCRP [9]): 11.6
